The target of the assay is T1, Bcl-2 protein (Recombinant Human Bcl-2 Protein) (Homo sapiens, UniProt P10415).
T1 construct: purchased Novus Biologicals NBP2-34889
The experiment in a line: AS-MS evaluation of binding of the Example 4 mixture library (1200 compounds/well) to Bcl-2, ASMS ratio (%). Particulars: AS-MS, Example 4 mixture library; for ASMS ratio (%) n = 1: Bcl-2, replicate n = 1; for ASMS ratio (%) n = 2: Bcl-2, replicate n = 2. In a few lines: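 ASMS ratio (%) derived from reverse-phase LC/MS of three samples: Bcl-2 (20 μM) incubation after SEC, protein-free standard without SEC, and protein-free blank after SEC. Compounds were pooled at 1200/well, 20 nM each, incubated 1 h, 23 °C, dark, in Tris-HCl pH 7.4 buffer with Tween-20 and DTT.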

The source of these data is US20250154686A1, “COMPOUND LIBRARY” (CHUGAI SEIYAKU KABUSHIKI KAISHA, priority 2021, published 2025).

Molecules are shown by their SMILES.

T1 sequence (P10415 whole entry): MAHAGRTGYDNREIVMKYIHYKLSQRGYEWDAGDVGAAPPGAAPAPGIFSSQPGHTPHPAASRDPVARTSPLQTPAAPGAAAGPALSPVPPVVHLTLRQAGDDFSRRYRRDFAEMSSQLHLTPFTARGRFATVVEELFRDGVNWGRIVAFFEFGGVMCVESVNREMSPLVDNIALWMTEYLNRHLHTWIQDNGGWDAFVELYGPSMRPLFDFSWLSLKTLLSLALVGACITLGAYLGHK

For the compound `CCOc1cccc(-c2ccc(CN3CCN(c4ccc(C(=O)NS(=O)(=O)c5ccc(NCCSc6ccccc6)c(C(F)(F)F)c5)cc4)CC3)cc2F)c1` [Compound B2R051-01, 4-[4-[[4-(3-Ethoxyphenyl)-3-fluorophenyl]methyl]piperazin-1-yl]-N-[4-(2-phenylsulfanylethylamino)-3-(trifluoromethyl)phenyl]sulfonylbenzamide], the “ASMS ratio (%) n = 1” value was determined as 12.7% and the “ASMS ratio (%) n = 2” value is recorded as −1.8%. The like results for `CCOc1cncc(-c2ccc(CN3CCN(c4ccc(C(=O)NS(=O)(=O)c5ccc(NCCSc6ccccc6)c(C(F)(F)F)c5)cc4)CC3)cc2F)c1` [Compound B2R052-01, 4-[4-[[4-(5-Ethoxypyridin-3-yl)-3-fluorophenyl]methyl]piperazin-1-yl]-N-[4-(2-phenylsulfanylethylamino)-3-(trifluoromethyl)phenyl]sulfonylbenzamide] were, in that order, 0.0% and −7.4%. The like results for `CCOc1cccc(-c2ccc(CN3CCN(c4ccc(C(=O)NS(=O)(=O)c5ccc(NCCSc6ccccc6)c(C(F)(F)F)c5)cc4)CC3)c(OC)c2)c1` [Compound B2R053-01, 4-[4-[[4-(3-Ethoxyphenyl)-2-methoxyphenyl]methyl]piperazin-1-yl]-N-[4-(2-phenylsulfanylethylamino)-3-(trifluoromethyl)phenyl]sulfonylbenzamide] were, in that order, −15.0% and 0.0%. The like results for `CCOc1cncc(-c2ccc(CN3CCN(c4ccc(C(=O)NS(=O)(=O)c5ccc(NCCSc6ccccc6)c(C(F)(F)F)c5)cc4)CC3)c(OC)c2)c1` [Compound B2R054-01, 4-[4-[[4-(5-Ethoxypyridin-3-yl)-2-methoxyphenyl]methyl]piperazin-1-yl]-N-[4-(2-phenylsulfanylethylamino)-3-(trifluoromethyl)phenyl]sulfonylbenzamide] were, in that order, 3.3% and −0.8%. `CCOc1cccc(-c2cc(CN3CCN(c4ccc(C(=O)NS(=O)(=O)c5ccc(NCCSc6ccccc6)c(C(F)(F)F)c5)cc4)CC3)cc(OCC)c2)c1` [Compound B2R055-01, 4-[4-[[3-Ethoxy-5-(3-ethoxyphenyl)phenyl]methyl]piperazin-1-yl]-N-[4-(2-phenylsulfanylethylamino)-3-(trifluoromethyl)phenyl]sulfonylbenzamide]: the “ASMS ratio (%) n = 1” value is reported as −3.3% and the “ASMS ratio (%) n = 2” value stood at 6.3%. With `CCOc1cncc(-c2cc(CN3CCN(c4ccc(C(=O)NS(=O)(=O)c5ccc(NCCSc6ccccc6)c(C(F)(F)F)c5)cc4)CC3)cc(OCC)c2)c1` [Compound B2R056-01, 4-[4-[[3-Ethoxy-5-(5-ethoxypyridin-3-yl)phenyl]methyl]piperazin-1-yl]-N-[4-(2-phenylsulfanylethylamino)-3-(trifluoromethyl)phenyl]sulfonylbenzamide], the “ASMS ratio (%) n = 2” value was −63.9%. `CCOc1cccc(-c2cc(CN3CCN(c4ccc(C(=O)NS(=O)(=O)c5ccc(NCCSc6ccccc6)c(C(F)(F)F)c5)cc4)CC3)cc(OC(C)C)c2)c1` [Compound B2R057-01, 4-[4-[[3-(3-Ethoxyphenyl)-5-propan-2-yloxyphenyl]methyl]piperazin-1-yl]-N-[4-(2-phenylsulfanylethylamino)-3-(trifluoromethyl)phenyl]sulfonylbenzamide]: the “ASMS ratio (%) n = 1” value was found to be 5.7% and the “ASMS ratio (%) n = 2” value is listed as −5.1%. Regarding `CCOc1cncc(-c2cc(CN3CCN(c4ccc(C(=O)NS(=O)(=O)c5ccc(NCCSc6ccccc6)c(C(F)(F)F)c5)cc4)CC3)cc(OC(C)C)c2)c1` [Compound B2R058-01, 4-[4-[[3-(5-Ethoxypyridin-3-yl)-5-propan-2-yloxyphenyl]methyl]piperazin-1-yl]-N-[4-(2-phenylsulfanylethylamino)-3-(trifluoromethyl)phenyl]sulfonylbenzamide], the “ASMS ratio (%) n = 1” value is given as 13.0% and the “ASMS ratio (%) n = 2” value is 4.8%.

As for `CCOc1cccc(-c2cc(OC)c(CN3CCN(c4ccc(C(=O)NS(=O)(=O)c5ccc(NCCSc6ccccc6)c(C(F)(F)F)c5)cc4)CC3)c(OC)c2)c1` [Compound B2R059-01, 4-[4-[[4-(3-Ethoxyphenyl)-2,6-dimethoxyphenyl]methyl]piperazin-1-yl]-N-[4-(2-phenylsulfanylethylamino)-3-(trifluoromethyl)phenyl]sulfonylbenzamide], the “ASMS ratio (%) n = 1” value is listed as 0.0% and the “ASMS ratio (%) n = 2” value is recorded as 0.0%.

Turning to `CCOc1cncc(-c2cc(OC)c(CN3CCN(c4ccc(C(=O)NS(=O)(=O)c5ccc(NCCSc6ccccc6)c(C(F)(F)F)c5)cc4)CC3)c(OC)c2)c1` [Compound B2R060-01, 4-[4-[[4-(5-Ethoxypyridin-3-yl)-2,6-dimethoxyphenyl]methyl]piperazin-1-yl]-N-[4-(2-phenylsulfanylethylamino)-3-(trifluoromethyl)phenyl]sulfonylbenzamide], the “ASMS ratio (%) n = 1” value amounted to 3.9% and the “ASMS ratio (%) n = 2” value was determined as 0.0%. For the compound `CCOc1cccc(-c2cc(CN3CCN(c4ccc(C(=O)NS(=O)(=O)c5ccc(NCCSc6ccccc6)c(C(F)(F)F)c5)cc4)CC3)cc(C(F)(F)F)c2)c1` [Compound B2R061-01, 4-[4-[[3-(3-Ethoxyphenyl)-5-(trifluoromethyl)phenyl]methyl]piperazin-1-yl]-N-[4-(2-phenylsulfanylethylamino)-3-(trifluoromethyl)phenyl]sulfonylbenzamide], the “ASMS ratio (%) n = 1” value worked out at 9.1% and the “ASMS ratio (%) n = 2” value is −6.0%. On the same counts, the results for `CCOc1cncc(-c2cc(CN3CCN(c4ccc(C(=O)NS(=O)(=O)c5ccc(NCCSc6ccccc6)c(C(F)(F)F)c5)cc4)CC3)cc(C(F)(F)F)c2)c1` [Compound B2R062-01, 4-[4-[[3-(5-Ethoxypyridin-3-yl)-5-(trifluoromethyl)phenyl]methyl]piperazin-1-yl]-N-[4-(2-phenylsulfanylethylamino)-3-(trifluoromethyl)phenyl]sulfonylbenzamide] are 0.0% and 0.0%. On the same counts, the results for `CCOc1cccc(-c2cc(CN3CCN(c4ccc(C(=O)NS(=O)(=O)c5ccc(NCCSc6ccccc6)c(C(F)(F)F)c5)cc4)CC3)cc(OC(F)(F)F)c2)c1` [Compound B2R063-01, 4-[4-[[3-(3-Ethoxyphenyl)-5-(trifluoromethoxy)phenyl]methyl]piperazin-1-yl]-N-[4-(2-phenylsulfanylethylamino)-3-(trifluoromethyl)phenyl]sulfonylbenzamide] are 8.2% and 4.6%. On the same counts, the results for `CCOc1cncc(-c2cc(CN3CCN(c4ccc(C(=O)NS(=O)(=O)c5ccc(NCCSc6ccccc6)c(C(F)(F)F)c5)cc4)CC3)cc(OC(F)(F)F)c2)c1` [Compound B2R064-01, 4-[4-[[3-(5-Ethoxypyridin-3-yl)-5-(trifluoromethoxy)phenyl]methyl]piperazin-1-yl]-N-[4-(2-phenylsulfanylethylamino)-3-(trifluoromethyl)phenyl]sulfonylbenzamide] are 4.2% and −7.4%. Take `CCOc1cccc(-c2ccc(CN3CCN(c4ccc(C(=O)NS(=O)(=O)c5ccc(NCCSc6ccccc6)c(C(F)(F)F)c5)cc4)CC3)c3ccccc23)c1` [Compound B2R065-01, 4-[4-[[4-(3-Ethoxyphenyl)naphthalen-1-yl]methyl]piperazin-1-yl]-N-[4-(2-phenylsulfanylethylamino)-3-(trifluoromethyl)phenyl]sulfonylbenzamide]: the “ASMS ratio (%) n = 1” value is 3.8% and the “ASMS ratio (%) n = 2” value was found to be 0.3%.

`CCOc1cncc(-c2ccc(CN3CCN(c4ccc(C(=O)NS(=O)(=O)c5ccc(NCCSc6ccccc6)c(C(F)(F)F)c5)cc4)CC3)c3ccccc23)c1` [Compound B2R066-01, 4-[4-[[4-(5-Ethoxypyridin-3-yl)naphthalen-1-yl]methyl]piperazin-1-yl]-N-[4-(2-phenylsulfanylethylamino)-3-(trifluoromethyl)phenyl]sulfonylbenzamide]: the “ASMS ratio (%) n = 1” value was 19.8% and the “ASMS ratio (%) n = 2” value is reported as −10.7%. The like results for `CCOc1cccc(-c2csc(CN3CCN(c4ccc(C(=O)NS(=O)(=O)c5ccc(NCCSc6ccccc6)c(C(F)(F)F)c5)cc4)CC3)c2)c1` [Compound B2R067-01, 4-[4-[[4-(3-Ethoxyphenyl)thiophen-2-yl]methyl]piperazin-1-yl]-N-[4-(2-phenylsulfanylethylamino)-3-(trifluoromethyl)phenyl]sulfonylbenzamide] were, in that order, 8.0% and 0.0%. For `CCOc1cncc(-c2csc(CN3CCN(c4ccc(C(=O)NS(=O)(=O)c5ccc(NCCSc6ccccc6)c(C(F)(F)F)c5)cc4)CC3)c2)c1` [Compound B2R068-01, 4-[4-[[4-(5-Ethoxypyridin-3-yl)thiophen-2-yl]methyl]piperazin-1-yl]-N-[4-(2-phenylsulfanylethylamino)-3-(trifluoromethyl)phenyl]sulfonylbenzamide], the “ASMS ratio (%) n = 1” value is on record as 0.0% and the “ASMS ratio (%) n = 2” value amounted to 0.0%. `CCOc1cccc(C#Cc2ccccc2CN2CCN(c3ccc(C(=O)NS(=O)(=O)c4ccc(NCCSc5ccccc5)c(C(F)(F)F)c4)cc3)CC2)c1` [Compound B2R069-01, 4-[4-[[2-[2-(3-Ethoxyphenyl)ethynyl]phenyl]methyl]piperazin-1-yl]-N-[4-(2-phenylsulfanylethylamino)-3-(trifluoromethyl)phenyl]sulfonylbenzamide]: the “ASMS ratio (%) n = 1” value is 12.3% and the “ASMS ratio (%) n = 2” value is listed as −18.5%. For `CCOc1cccc(-c2ccccc2CN2CCN(c3ccc(C(=O)NS(=O)(=O)c4ccc(NCCSc5ccccc5)c(C(F)(F)F)c4)nn3)CC2)c1` [Compound B2R071-01], the “ASMS ratio (%) n = 1” value came out at 14.3% and the “ASMS ratio (%) n = 2” value is −9.0%.
